Assay results: paper PMC2693909 (Journal of molecular biology, 2009)

Target: Hsc70 NBD (Hsc-70-NBD) (Bos taurus, UniProt P19120)
Test: […]-1H NMR chemical shift differences, ATP versus ADP.Pi state
Format: binding
Settings: neutral aqueous solution

Sequence of Hsc70 NBD (Hsc-70-NBD) (P19120 1-383 limits assumed): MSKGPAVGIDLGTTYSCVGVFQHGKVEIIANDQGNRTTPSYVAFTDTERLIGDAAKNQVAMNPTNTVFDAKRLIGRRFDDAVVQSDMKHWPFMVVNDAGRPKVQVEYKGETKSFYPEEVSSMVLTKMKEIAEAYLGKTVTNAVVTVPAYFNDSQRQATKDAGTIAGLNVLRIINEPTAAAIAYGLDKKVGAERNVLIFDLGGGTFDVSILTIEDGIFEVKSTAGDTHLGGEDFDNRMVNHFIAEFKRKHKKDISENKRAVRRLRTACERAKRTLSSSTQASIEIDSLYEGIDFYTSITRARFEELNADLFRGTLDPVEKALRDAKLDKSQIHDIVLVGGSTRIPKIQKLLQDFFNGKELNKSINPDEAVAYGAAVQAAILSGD

| SMILES | 15N-1H NMR chemical shift differences, ATP versus ADP.Pi state (ATP state) | 15N-1H NMR chemical shift differences, ATP versus ADP.Pi state (ADP.Pi state) |
| --- | --- | --- |
| Nc1ncnc2c1ncn2[C@@H]1O[C@H](COP(=O)(O)OP(=O)(O)OP(=O)(O)O)[C@@H](O)[C@H]1O [ATP] | NMR spectra of the isolated NBD of Hsc70 between the ADP.Pi and ATP state | – |
| Nc1ncnc2c1ncn2[C@@H]1O[C@H](COP(=O)(O)OP(=O)(O)O)[C@@H](O)[C@H]1O [ADP] | – | NMR spectra of the isolated NBD of Hsc70 between the ADP.Pi and ATP state |
